Results published in US10226530B2, “Methods for treating and/or limiting development of diabetes” (Biocrine AB, priority 2011, dated 2019).
“Also recorded” adds a separate entry of the source.

Experiments:
[1] = system: β cell CaV channels; test: perforated whole-cell patch-clamp of Ca2+ currents in RINm5F cells; assay type: cell-based, rat
Experimental: (§1) Islets of Langerhans were isolated from adult male and female mice and dispersed into single ([…]. RINm5F cells at about 70% confluency were trypsinized. The resultant suspension of cells was seeded into Petri dishes or 12-well plates. The cells were cultivated in RPMI 1640 medium supplemented with 10% fetal bovine serum, 2 mM L-glutamine, and 100 U/100 […] penicillin/streptomycin (Invitrogen, Carlsbad, Calif.) and maintained at 37° C. in a humidified 5% CO2 incubator. They were grown overnight and then subjected to siRNA transfection. For patch-clamp analysis, cells underwent overnight treatment with ApoCIII, the PKA inhibitor H-89 (Calbiochem, La Jolla, Calif.), the PKC inhibitor calphostin C (Calbiochem), the Src kinase inhibitor PP2 (Calbiochem) and the CaV1 channel blocker nimodipine (Calbiochem) in RPMI medium at final concentrations of 20 μg/ml, 0.5 μM, 0.1 μM, 0.1 μM and 5 μM, respectively. ApoCIII was dissolved in 0.1% triflouroacetic acid (TFA) to make a stock solution of 1 mg/ml, whereas H-89, calphostin C, PP2 and nimodipine were dissolved in dimethyl sulfoxide (DMSO) to form stock solutions of 5 mM, 1 mM, 1 mM and 10 mM, respectively. 0.002% TFA and/or 0.03% DMSO were used as vehicle controls.
Two pairs of 21-mer siRNA duplexes targeting the rat β1 integrin (β1 integrin siRNA #1, ID127971 and β1 integrin siRNA #2, ID127972) were designed and chemically synthesized by Applied Biosystems/Ambion (Austin, Tex.). Their sequences were subjected to BLAST search to ensure their specificity. Silencer® Select Negative Control siRNA (4390843), not targeting any gene product, and Silencer® Select GAPDH Positive Control siRNA (4390849), efficiently silencing GAPDH in human, mouse, and rat cells, were purchased from Applied Biosystems/Ambion (Austin, Tex.). RINm5F cells were reversely transfected with Lipofectamine™ RNAiMAX™. Briefly, negative control siRNA, β1 integrin siRNA #1 or β1 integrin siRNA #2 was mixed with Lipofectamine™ RNAiMAX™ followed by 20-min incubation at room temperature. Subsequently, cells were added to the siRNA/Lipofectamine™ RNAiMAX mixtures followed by gentle agitation and kept at 37° C. in a humidified 5% CO2 incubator. After 72 h, the transfected cells were grown to about 70% confluency and subjected to immunoblot assay or different treatments.
(§2) Mouse islet cells and RINm5F cells following different treatments were subjected to single channel and whole-cell patch-clamp measurements. Cell-attached and perforated whole-cell patch-clamp configurations were employed. Electrodes were made from borosilicate glass capillaries, fire-polished and coated with Sylgard close to their tips. Some of them were filled with a solution containing (in mM) 110 BaCl2, 10 TEA-Cl, and 5 HEPES (pH 7.4 with Ba(OH)2) for single channel measurements. Others were filled with a solution composed of (in mM) 76 Cs2SO4, 1 MgCl2, 10 KCl, 10 NaCl, and 5 HEPES (pH 7.35 with CsOH), as well as amphotericin B (0.24 mg/ml) for whole-cell current recordings. Electrode resistance ranged between 4 and 6 MΩ when they were filled with electrode solutions and immersed in bath solutions. The electrode offset potential was corrected in bath solutions prior to gigaseal formation. Single-channel recordings were performed with cells bathed in a depolarizing external recording solution, containing (in mM) 125 KCl, 30 KOH, 10 EGTA, 2 CaCl2, 1 MgCl2, and 5 HEPES-KOH (pH 7.15). This solution was used to bring the intracellular potential to 0 mV. For perforated whole-cell current measurements, the cells were bathed in a solution containing (in mM) 138 NaCl, 5.6 KCl, 1.2 MgCl2, 10 CaCl2, 5 HEPES (pH 7.4). Single channel and whole-cell currents were recorded with an Axopatch 200B amplifier (Molecular Devices, Foster City, Calif.) and an EPC-9 patch clamp amplifier (HEKA Elektronik, Lambrecht/Pfalz, Germany), respectively, at room temperature (about 22° C.). […]

[2] = system: CaV1 channels; test: cell-attached single channel patch-clamp of unitary CaV1 channel currents in mouse islet β cells; assay type: cell-based
Experimental: as §1
as §2, with “For perforated whole-cell current measurements, the cells were bathed in a solution containing (in mM) 138 NaCl, 5.6 KCl, 1.2 MgCl2, 10 CaCl2, 5 HEPES (pH 7.4).” left out

[3] = system: CaV1 channels; test: cell-attached single channel patch-clamp of unitary CaV1 channel currents in RINm5F cells; assay type: cell-based, rat; details: ApoCIII 20 μg/ml overnight versus vehicle solution
Experimental: as §1
as §2, with “For perforated whole-cell current measurements, the cells were bathed in a solution containing (in mM) 138 NaCl, 5.6 KCl, 1.2 MgCl2, 10 CaCl2, 5 HEPES (pH 7.4).” left out

[4] = system: CaV1.2; test: immunoblot of CaV1.2 subunit in RINm5F cell homogenates; assay type: cell-based, rat; details: overnight ApoCIII; P>0.05
Experimental: as §1, with “ApoCIII was dissolved in 0.1% triflouroacetic acid (TFA) to make a stock solution of 1 mg/ml, whereas H-89, calphostin C, PP2 and nimodipine were dissolved in dimethyl sulfoxide (DMSO) to form stock solutions of 5 mM, 1 mM, 1 mM and 10 mM, respectively. 0.002% TFA and/or 0.03% DMSO were used as vehicle controls.” left out
(§3) RINm5F cells following different treatments were lysed in a lysis buffer (pH 7.5) consisting of 50 mM HEPES, 150 mM NaCl, 1 mM EGTA, 1 mM EDTA, 10% glycerol, 1% triton X-100, 1 mM PMSF and a protease inhibitor cocktail (Roche Diagnostics, Mannheim, Germany). […] The protein concentration of the resulting samples was determined with Bio-Rad protein assay reagent (Bio-Rad, Hercules, Calif.). […]

[5] = system: CaV1.3; test: immunoblot of CaV1.3 subunit in RINm5F cell homogenates; assay type: cell-based, rat; details: overnight ApoCIII; P>0.05
Experimental: as §1, with “ApoCIII was dissolved in 0.1% triflouroacetic acid (TFA) to make a stock solution of 1 mg/ml, whereas H-89, calphostin C, PP2 and nimodipine were dissolved in dimethyl sulfoxide (DMSO) to form stock solutions of 5 mM, 1 mM, 1 mM and 10 mM, respectively. 0.002% TFA and/or 0.03% DMSO were used as vehicle controls.” left out
as §3

[6] = system: β cell CaV channels; details: mouse islet β cell; Juntti-Berggren et al., 2004; cited from earlier work
[7] = H-89 0.5 μM, ApoCIII 20 μg/ml, overnight
[8] = ApoCIII 20 μg/ml overnight versus control vehicle

O=S(=O)(NCCNC/C=C/c1ccc(Br)cc1)c1cccc2cnccc12 [H-89]
Ca2+ current density, cotreatment of ApoCIII and H-89 versus cells treated with ApoCIII [1, 7]: did not significantly differ
Ca2+ current density, cotreatment of ApoCIII and H-89 versus control cells [1, 7]: did not significantly differ
Ca2+ current densities under basal conditions, H-89 versus control ([1]; H-89 0.5 μM, absence of ApoCIII): did not significantly influence

CC(C)(C)n1nc(-c2ccc(Cl)cc2)c2c(N)ncnc21 [PP2]
difference in Ca2+ current density to vehicle: ApoCIII/PP2-cotreated cells compared with that of ApoCIII-treated cells ([1]; PP2 0.1 μM): less prominent
Ca2+ current densities, cells incubated with PP2 versus vehicle-treated cells ([1]; PP2 0.1 μM, absence of ApoCIII): similar
Ca2+ currents, cotreatment of ApoCIII and PP2 versus vehicle control cells ([1]; voltage range 20-40 mV, PP2 0.1 μM): significantly larger

apolipoprotein CIII [ApoCIII]
mean closed time of unitary CaV1 channels ([2]; ApoCIII 20 μg/ml overnight versus control patches): significantly shorter
mean open time of unitary CaV1 channels [2, 8]: significantly greater
open probability of unitary CaV1 channels [2, 8]: significantly greater
average number of unitary CaV1 channels ([2]; ApoCIII 20 μg/ml overnight versus control vehicle, plasma membrane patches): significantly greater
channel number of CaV1 channels [3]: significantly increased
mean closed time of CaV1 channels [3]: shortened
mean open time of CaV1 channels [3]: prolonged
open probability of CaV1 channels [3]: elevated
density of whole-cell Ca2+ currents, ApoCIII group versus control group ([1]; no voltage range printed, H-89/PP2 experiment): Significantly higher
Ca2+ current density, NC siRNA/apoCIII versus NC siRNA/Control ([1]; voltage range 10-40 mV, negative control siRNA-transfected cells): significant increase
whole-cell Ca2+ current density, ApoCIII-treated cells versus vehicle control cells ([1]; voltage range 10 to 50 mV, ApoCIII 20 μg/ml overnight): significantly higher; also recorded: increased significantly; also recorded: significantly elevated; also recorded: significantly increased
whole-cell Ca2+ current density, ApoCIII group versus control group ([1]; voltage range from 10 to 30 mV, ApoCIII 20 μg/ml overnight): significantly higher
relative abundance of CaV1.2 subunits, ApoCIII incubation versus vehicle incubation [4]: no significant difference
relative abundance of CaV1.3 subunits, ApoCIII incubation versus vehicle incubation [5]: no significant difference
whole-cell Ca2+ currents after ApoCIII incubation [6]: significantly enhances

calphostin C [CalpC]
Ca2+ current density, ApoCIII/CalpC-cotreated cells versus ApoCIII-treated cells ([1]; calphostin C 0.1 μM): no difference
Ca2+ current density, CalpC-treated cells versus control vehicle ([1]; calphostin C 0.1 μM, absence of ApoCIII): similar
mean Ca2+ current density, ApoCIII/CalpC versus vehicle control cells ([1]; voltage range from 20 to 50 mV, calphostin C 0.1 μM): increased significantly
